Structures are written as SMILES. Like-named read-outs stand apart in the source and are kept apart here.

Here are results for 20 compounds from patent US20260078130A1, “NAMPT MODULATORS, PREPARATIONS, AND USES THEREOF” (SIRONAX LTD., priority 2022, published 2026).

Experiment [1] concerns the target T1, human enzyme NAMPT (full length) (Homo sapiens, UniProt P43490).
T1 construct: human enzyme NAMPT (full length)
Description: NMN fluorescence biochemical assay (stimulation of NMN synthesis by NAMPT). The settings on record: for EC50: concentration giving half-maximal activation, read-out: Enzymatic EC50; for Enzymatic Emax: fold change of maximal activation compared to DMSO. The method in brief:
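Full-length human NAMPT (100 nM) was preincubated 15 min at 37 °C with compound in 50 mM Tris-HCl pH 7.5, 10 mM MgCl2, 2 mM DTT, then reacted 1 h at 37 °C with 50 μM NAM, 100 μM PRPP, 4 mM ATP (stated solution concentrations). NMN was derivatised with acetophenone/KOH then formic acid and read at Ex/Em 382/445 nm; EC50 and Emax (fold over DMSO) reported.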

Experiment [2] deals with endogenous NAMPT in U2OS cells. As to the kind of experiment: Cellular NAD+ modulation assay (NAD/NADH-Glo, U2OS cells). It is filed as cell-based. Conditions: Homo sapiens; for maximal fold induction: read-out: Cellular Emax. The method in brief:
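Endogenous NAMPT stimulation in U2OS cells treated with compound dilution series for 24 h at 37 °C. Cells lysed with DTAB base, acid-treated 15 min at 60 °C, neutralized, NAD+ read by NAD/NADH-Glo luminescence after 40 min at room temperature. EC50 and Emax (fold over DMSO) derived.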

[3] abbreviates: NMN fluorescence assay, purified human NAMPT 100 nM.
Setting [4] is: 24 hours incubation, cellular NAD+.
Setting [5] is: NMN synthesis by purified human NAMPT (100 nM).
Setting [6] is: 24 hours incubation with compound.

T1 sequence (P43490 whole entry): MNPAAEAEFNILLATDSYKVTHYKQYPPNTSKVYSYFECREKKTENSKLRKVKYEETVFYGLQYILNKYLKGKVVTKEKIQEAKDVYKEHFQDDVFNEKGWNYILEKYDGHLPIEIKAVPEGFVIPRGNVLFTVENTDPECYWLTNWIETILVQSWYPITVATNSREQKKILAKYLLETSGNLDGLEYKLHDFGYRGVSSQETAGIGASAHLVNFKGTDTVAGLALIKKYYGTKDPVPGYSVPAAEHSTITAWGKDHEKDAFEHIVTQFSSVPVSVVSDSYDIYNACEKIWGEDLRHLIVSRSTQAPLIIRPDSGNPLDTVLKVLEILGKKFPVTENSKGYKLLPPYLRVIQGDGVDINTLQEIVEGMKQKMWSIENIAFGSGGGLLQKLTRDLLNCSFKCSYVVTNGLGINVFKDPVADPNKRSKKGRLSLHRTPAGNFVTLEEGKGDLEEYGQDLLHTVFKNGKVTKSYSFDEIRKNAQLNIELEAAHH

The EC50 is the concentration giving half of the maximal effect. As for `COc1ccc(CN2C(=O)c3ccc(Cl)cc3C2Cc2c(C)ncnc2C#N)cn1` (centres unmarked) [Compound 639, 5-((6-chloro-2-((6-methoxypyridin-3-yl)methyl)-3-oxoisoindolin-1-yl)methyl)-6-methylpyrimidine-4-carbonitrile], the EC50 was no less than 5000 nM in experiment [1] (setting [3]) and 500 to 5000 nM in experiment [2] (setting [4]). Also, in experiment [1], the “Enzymatic Emax” value was “B (3≥B>2)”. Further, the maximal fold induction in experiment [2] (setting [4]) lay within 1.2 to 1.5.

As for `N#Cc1ccccc1CC1c2ccccc2C(=O)N1Cc1cc(F)c(O)c(F)c1` (centres unmarked) [Compound 197, 2-((2-(3,5-difluoro-4-hydroxybenzyl)-3-oxoisoindolin-1-yl)methyl)benzonitrile], the EC50 in experiment [1] (setting [5]) lay in the range of 500 to 5000 nM. In addition, in experiment [1], the “Enzymatic Emax” value is listed as “B (3≥B>2)”. Also, in experiment [2] (setting [6]), the EC50 was in the range of 500 to 5000 nM and the maximal fold induction is greater than 1.5.

Regarding `N#Cc1nccc(Cl)c1CC1c2ccccc2C(=O)N1Cc1ccc2[nH]nnc2c1` (centres unmarked) [Compound 228, 3-((2-((1H-benzo[d][1,2,3]triazol-5-yl)methyl)-3-oxoisoindolin-1-yl)methyl)-4-chloropicolinonitrile], in experiment [1] (setting [5]), the concentration giving a half-maximal response (EC50) was less than 500 nM. Moreover, the “Enzymatic Emax” value in experiment [1] is on record as “B (3≥B>2)”. Moreover, in experiment [2] (setting [6]), the EC50 was less than 500 nM and the maximal fold induction is greater than 1.5.

For `CN1CCn2c(cc(Cl)c2CC2c3ccccc3C(=O)N2CC2CC3(CNC(=O)O3)C2)C1` (centres unmarked) [Compound 484, 2-((1-((7-chloro-2-methyl-1,2,3,4-tetrahydropyrrolo[1,2-a]pyrazin-6-yl)methyl)-3-oxoisoindolin-2-yl)methyl)-5-oxa-7-azaspiro[3.4]octan-6-one], the EC50 in experiment [1] (setting [3]) was 500 to 5000 nM. The “Enzymatic Emax” value in experiment [1] is “B (3≥B>2)”. Moreover, in experiment [2] (setting [4]), the EC50 was less than 500 nM and the maximal fold induction was in the range of 1.2 to 1.5.

For the compound `Cn1ccc(Cl)c(CC2c3ccccc3C(=O)N2CC2CC3(CNC(=O)O3)C2)c1=O` (centres unmarked) [Compound 480, 2-((1-((4-chloro-1-methyl-2-oxo-1,2-dihydropyridin-3-yl)methyl)-3-oxoisoindolin-2-yl)methyl)-5-oxa-7-azaspiro[3.4]octan-6-one], the EC50 in experiment [1] (setting [3]) is less than 500 nM. In addition, the “Enzymatic Emax” value in experiment [1] is “B (3≥B>2)”. In experiment [2] (setting [4]), the half-maximal effective concentration (EC50) was less than 500 nM and the maximal fold induction was greater than 1.5.

Take `O=C1c2ccccc2C(Cc2ncccc2Br)N1CC#Cc1cn[nH]n1` (centres unmarked) [Compound 417, 2-(3-(2H-1,2,3-triazol-4-yl)prop-2-yn-1-yl)-3-((3-bromopyridin-2-yl)methyl) isoindolin-1-one]: the EC50 in experiment [1] (setting [3]) and in experiment [2] (setting [4]) was less than 500 nM throughout. Moreover, in experiment [1], the “Enzymatic Emax” value was “B (3≥B>2)”. Besides, the maximal fold induction in experiment [2] (setting [4]) is greater than 1.5.

For `Cn1ncc(Cl)c1CC1c2c(F)cccc2C(=O)N1Cc1ccc2[nH]nnc2c1` (centres unmarked) [Compound 338, 2-((1H-benzo[d][1,2,3]triazol-5-yl)methyl)-3-((4-chloro-1-methyl-1H-pyrazol-5-yl)methyl)-4-fluoroisoindolin-1-one], the EC50 in experiment [1] (setting [3]) is less than 500 nM. Moreover, the “Enzymatic Emax” value in experiment [1] is given as “A (A>3)”. Besides, in experiment [2] (setting [4]), the EC50 was less than 500 nM and the maximal fold induction is greater than 1.5.

Turning to `Cc1ccnc(C#N)c1CC1c2ccc(F)cc2C(=O)N1CC1CC2(CNC(=O)O2)C1` (centres unmarked) [Compound 449, 3-((5-fluoro-3-oxo-2-((6-oxo-5-oxa-7-azaspiro[3.4]octan-2-yl)methyl)isoindolin-1-yl)methyl)-4-methylpicolinonitrile], the EC50 in experiment [1] (setting [3]) was in the range of 500 to 5000 nM. The “Enzymatic Emax” value in experiment [1] was “B (3≥B>2)”. In experiment [2] (setting [4]), the EC50 was less than 500 nM and the maximal fold induction is greater than 1.5.

As to `CC1c2ccccc2C(=O)N1Cc1ccc(NC(=O)NCc2ccncc2)cc1` (centres unmarked) [Compound 291, 1-(4-((1-methyl-3-oxoisoindolin-2-yl)methyl)phenyl)-3-(pyridin-4-ylmethyl)urea], the concentration giving a half-maximal response (EC50) in experiment [1] (setting [5]) and in experiment [2] (setting [6]) was less than 500 nM each time. In addition, in experiment [1], the “Enzymatic Emax” value was “C (2≥C)”. For the same compound, the maximal fold induction in experiment [2] (setting [6]) lay within 1.2 to 1.5.

In the case of `Cn1nc(F)c(Cl)c1CC1c2ccccc2C(=O)N1CC1CC2(CNC(=O)O2)C1` (centres unmarked) [Compound 547, 2-((1-((4-chloro-3-fluoro-1-methyl-1H-pyrazol-5-yl)methyl)-3-oxoisoindolin-2-yl)methyl)-5-oxa-7-azaspiro[3.4]octan-6-one], the EC50 in experiment [1] (setting [3]) lay within 500 to 5000 nM. Also, the “Enzymatic Emax” value in experiment [1] is given as “A (A>3)”. Also, in experiment [2] (setting [4]), the EC50 was less than 500 nM and the maximal fold induction was greater than 1.5.

Turning to `Cn1ncc(Cl)c1CC1c2cc(C3CN(C(=O)OC(C)(C)C)C3)ccc2C(=O)N1CC1CC2(CNC(=O)O2)C1` (centres unmarked) [Compound 514, tert-butyl 3-(3-((4-chloro-1-methyl-1H-pyrazol-5-yl)methyl)-1-oxo-2-((6-oxo-5-oxa-7-azaspiro[3.4]octan-2-yl)methyl)isoindolin-5-yl)azetidine-1-carboxylate], the EC50 in experiment [1] (setting [3]) was 500 to 5000 nM. Also, in experiment [1], the “Enzymatic Emax” value is “A (A>3)”. Further, in experiment [2] (setting [4]), the EC50 was 500 to 5000 nM and the maximal fold induction is greater than 1.5.

Turning to `Cn1ncc(Cl)c1CC1c2cc(Cl)ncc2C(=O)N1CC1CC2(CNC(=O)O2)C1` (centres unmarked) [Compound 524, 2-((6-chloro-1-((4-chloro-1-methyl-1H-pyrazol-5-yl)methyl)-3-oxo-1,3-dihydro-2H-pyrrolo[3,4-c]pyridin-2-yl)methyl)-5-oxa-7-azaspiro[3.4]octan-6-one], the results for the EC50 in experiment [1] (setting [3]) and in experiment [2] (setting [4]) were no less than 5000 nM and 500 to 5000 nM, respectively. Besides, the “Enzymatic Emax” value in experiment [1] is recorded as “C (2≥C)”. Besides, the maximal fold induction in experiment [2] (setting [4]) is greater than 1.5.

For the compound `Cn1ncc(Cl)c1CC1c2cc(C3COC3)ccc2C(=O)N1CC1CC2(CNC(=O)O2)C1` (centres unmarked) [Compound 473, 2-((3-((4-chloro-1-methyl-1H-pyrazol-5-yl)methyl)-5-(oxetan-3-yl)-1-oxoisoindolin-2-yl)methyl)-5-oxa-7-azaspiro[3.4]octan-6-one], the EC50 in experiment [1] (setting [3]) lay in the range of 500 to 5000 nM. Moreover, in experiment [1], the “Enzymatic Emax” value is on record as “B (3≥B>2)”. In experiment [2] (setting [4]), the EC50 lay within 500 to 5000 nM and the maximal fold induction was greater than 1.5.

In the case of `COc1ccc(CN2C(=O)c3ccc(Br)cc3C2Cc2c(Cl)cnn2C)cn1` (centres unmarked) [Compound 622, 5-bromo-3-((4-chloro-1-methyl-1H-pyrazol-5-yl)methyl)-2-((6-methoxypyridin-3-yl)methyl)isoindolin-1-one], in experiment [1] (setting [3]), the EC50 was no less than 5000 nM. Also, the “Enzymatic Emax” value in experiment [1] is “A (A>3)”. In addition, in experiment [2] (setting [4]), the EC50 was in the range of 500 to 5000 nM and the maximal fold induction was greater than 1.5.

Take `O=C1c2ccccc2C(Cc2ncccc2Br)N1CCc1cn[nH]c1` (centres unmarked) [Compound 475, 2-(2-(1H-pyrazol-4-yl)ethyl)-3-((3-bromopyridin-2-yl)methyl)isoindolin-1-one]: the EC50 in experiment [1] (setting [3]) and in experiment [2] (setting [4]) was 500 to 5000 nM throughout. Besides, the “Enzymatic Emax” value in experiment [1] is reported as “C (2≥C)”. Moreover, the maximal fold induction in experiment [2] (setting [4]) was in the range of 1.2 to 1.5.

On to `Cc1cccc2c1CN(Cc1ccc(O)cc1)C2=O` [Compound 34, 2-(4-hydroxybenzyl)-4-methylisoindolin-1-one], for which the EC50 in experiment [1] (setting [5]) was 500 to 5000 nM. Further, the “Enzymatic Emax” value in experiment [1] is “B (3≥B>2)”. For the same compound, in experiment [2] (setting [6]), the EC50 was 500 to 5000 nM and the maximal fold induction lay within 1.2 to 1.5.

Turning to `CC1c2cc(Cc3ccccc3)ccc2C(=O)N1Cc1ccc2[nH]c(=O)oc2c1` (centres unmarked) [Compound 113, 6-((5-benzyl-3-methyl-1-oxoisoindolin-2-yl)methyl)benzo[d]oxazol-2(3H)-one], the EC50 in experiment [1] (setting [5]) lay within 500 to 5000 nM. For the same compound, the “Enzymatic Emax” value in experiment [1] is “B (3≥B>2)”. Moreover, in experiment [2] (setting [6]), the EC50 lay within 500 to 5000 nM and the maximal fold induction is 1.2 to 1.5.

On to `[2H]C([2H])(c1c(Cl)cnn1C)C1c2ccccc2C(C)(C)N1CC1CC2(CNC(=O)O2)C1` (centres unmarked) [Compound 616, 2-((3-((4-chloro-1-methyl-1H-pyrazol-5-yl)methyl-d2)-1,1-dimethylisoindolin-2-yl)methyl)-5-oxa-7-azaspiro[3.4]octan-6-one], for which the concentration giving a half-maximal response (EC50) in experiment [1] (setting [3]) is 500 to 5000 nM; in experiment [2] (setting [4]), less than 500 nM. In addition, the “Enzymatic Emax” value in experiment [1] is “A (A>3)”. The maximal fold induction in experiment [2] (setting [4]) was 1.2 to 1.5.

For `O=C1c2ccccc2C(Cc2ccccc2Cl)N1Cc1ccc2[nH]c(=O)oc2c1` (centres unmarked) [Compound 157, 6-((1-(2-chlorobenzyl)-3-oxoisoindolin-2-yl)methyl)benzo[d]oxazol-2(3H)-one], the values for the EC50 in experiment [1] (setting [5]) and in experiment [2] (setting [6]) were less than 500 nM and 500 to 5000 nM, respectively. In addition, the “Enzymatic Emax” value in experiment [1] is “A (A>3)”. In addition, in experiment [2] (setting [6]), the maximal fold induction is greater than 1.5.

In the case of `CC1c2cc(CN3CC4(COC4)C3)ccc2C(=O)N1Cc1ccc2[nH]c(=O)oc2c1` (single isomer, unassigned) [Compound 187], the EC50 in experiment [1] (setting [5]) and in experiment [2] (setting [6]) was 500 to 5000 nM in each case. Also, the “Enzymatic Emax” value in experiment [1] is given as “B (3≥B>2)”. Further, the maximal fold induction in experiment [2] (setting [6]) was greater than 1.5.
